In publication PMC8201735 (BMC Pharmacology & Toxicology, 2021):
Like-named read-outs stand apart in the source and are kept apart here. Values belong to the compound of their own block, whether it stands above or below them.

Experiments:
[1] = Plasma pharmacokinetics of metformin with and without RE; assay type: in vivo, human; details: for AUC / Cmax: human, plasma, oral, geometric mean; for AUC: Metformin AUC (0-tau); for Cmax: Metformin Cmax
Description: (§1) PK analysis was conducted by […] (Chapel Hill, NC, USA), under the direction of Clinical Pharmacokinetics/Modelling and Simulation, GSK using the non-compartmental analysis Model 200 (for extra vascular administration) of WinNonlin Professional Edition version 4.1 (Pharsight Corporation, Mountain View, CA). […] Descriptive statistics were used to summarize baseline demographics, safety data, and pharmacokinetic parameters. Geometric mean and % CVb (between-subject coefficient of variation) were calculated for all pharmacokinetic parameters except tmax. Comparisons of placebo with each active dose of RE were assessed in terms of change from baseline in fasting plasma lactate acid using repeated measures analysis of covariance model. The model included terms for baseline measurement, visit, treatment and visit-by-treatment interaction. The same model was applied to change from baseline in weighted means of day-time, night-time and 0-24 h of blood pressures. Within group treatment comparison was performed using mixed model on log transformed Cmax and AUC (0-last).

[2] = Fluid balance assessment (intake - urine output); assay type: in vivo, human; details: Placebo + Metformin
[3] = test system: subjects with T2DM; test: Oral glucose tolerance test (75 g): weighted mean plasma glucose and insulin; assay type: in vivo, human; details: Placebo + Metformin
Description: Oral glucose tolerance testing was performed on Day 1 and Day 13 using a 75 g oral glucose solution. Blood samples for the measurement of insulin and glucose were taken immediately before drug dosing (within 5 min of drug dosing), and at 30 min, 1, 1.5, 2, 3, 4, and 6 h following drug dosing.

[4] = test system: subjects with T2DM; test: as above; assay type: in vivo, human; details: Day -1 (baseline); Placebo + Metformin
[5] = test system: subjects with T2DM; details: RE 500 mg BID and metformin 500 mg BID for 3 days; cited from earlier work
[6] = Body weight; assay type: in vivo, human; details: Placebo + Metformin
Description: Body weight measurement was performed at screening and during inpatient Days- 1, 2, 4, 8, 13, and 14.

[7] = test system: subjects with T2DM; test: Adverse event monitoring, RE co-administered with metformin for 13 days; assay type: in vivo, human
Excerpt: The study was comprised of three phases; run-in, randomization, and treatment. […] In treatment phase the patients were considered in two cohorts. […] The adverse events monitoring included recording of any adverse event (AE) and serious adverse event (SAE) reported or observed during the entire study and follow-up period. All the subjects were counseled to inform study staff of any AEs that occurred during the study. Any abnormal laboratory findings (e.g., clinical chemistry, hematology, and urinalysis) or other abnormal assessments (e.g., ECGs, vital signs, physical examination) that were judged by the investigator as clinically significant were recorded as AEs or SAE.

[8] = test system: subjects with T2DM; test: Surveillance for lactic acidosis: fasting plasma lactic acid concentration; assay type: in vivo, human
Description: The samples for acidosis analysis were collected at screening (following an overnight fast and prior to morning dose), once during the run-in phase, at baseline (Day- 1), mornings (prior to first dose and breakfast) of Days 1, 2, 3, and 4 (inpatient) and Days 6, 8, and 10 (outpatient) and Days 13 and 14 (inpatient). Subjects were not allowed to do rigorous exercise or physical labor during the treatment phase of the study and instructed to limit exercise 12 h before sampling.
Descriptive statistics were used to summarize baseline demographics, safety data, and pharmacokinetic parameters. Geometric mean and % CVb (between-subject coefficient of variation) were calculated for all pharmacokinetic parameters except tmax. Comparisons of placebo with each active dose of RE were assessed in terms of change from baseline in fasting plasma lactate acid using repeated measures analysis of covariance model. The model included terms for baseline measurement, visit, treatment and visit-by-treatment interaction. The same model was applied to change from baseline in weighted means of day-time, night-time and 0–24 h of blood pressures. Within group treatment comparison was performed using mixed model on log transformed Cmax and AUC (0-last).

[9] = Plasma pharmacokinetics of remogliflozin etabonate and its metabolites during metformin treatment; assay type: in vivo, human; details: for AUC / Cmax / Tmax: human, plasma; for AUC: read-out: AUC(0-tau), geometric mean (%CVb); for Cmax: read-out: Cmax, geometric mean (%CVb)
Description: as §1

[10] = Day 13, Metformin + Placebo group
[11] = Day 13 Metformin + RE 750 mg BID
[12] = Day -1 metformin alone, Metformin + Placebo group
[13] = Day -1 metformin alone, Metformin + RE 500 mg group
[14] = Day 13 Metformin + RE 500 mg BID
[15] = Day -1 metformin alone, Metformin + RE 750 mg group
[16] = Placebo BID + metformin, N = 17
[17] = oral, 500 mg, Day 1, after RE 500 mg BID + metformin, N = 16
[18] = oral, 500 mg, Day 13, after RE 500 mg BID + metformin, N = 15
[19] = oral, 750 mg, Day 1, after RE 750 mg BID + metformin, N = 17
[20] = oral, 750 mg, Day 13, after RE 750 mg BID + metformin, N = 16

- Metformin Cmax, geometric mean [1, 10]: 2041 ng/mL
- Metformin tmax, median [1, 10]: 2.5 h
- Metformin Cmax, geometric mean [1, 11]: 1695 ng/mL
- Metformin tmax, median [1, 11]: 2.0 h
- Metformin tmax, median [1, 12]: 2.0 h
- Metformin tmax, median [1, 13]: 3.0 h
- AUC [1, 10]: 14000 ng·h/mL
- AUC [1, 14]: 14700 ng·h/mL
- AUC [1, 11]: 11400 ng·h/mL
- AUC [1, 12]: 12300 ng·h/mL
- AUC [1, 13]: 13900 ng·h/mL
- AUC [1, 15]: 11300 ng·h/mL
- Cmax [1, 14]: 2170 ng/mL
- Cmax [1, 12]: 1970 ng/mL
- Cmax [1, 13]: 2160 ng/mL
- Cmax [1, 15]: 1760 ng/mL
- Change in fluid balance, Mean (SD) ([2]; Day 2): 203.5 (999.83) ml
- Change in fluid balance, Mean (SD) ([2]; Day 13): −42.0 (1262.56) ml
- Fasting plasma lactic acid, maximum on-therapy absolute values, Mean (SD) ([8]; Placebo BID + metformin): 1.554 (0.5094) mmol/L
- Fasting plasma lactic acid, maximum on-therapy change from baseline, Mean (SD) ([8]; Placebo BID + metformin): 0.460 (0.2289) mmol/L
- Fasting plasma lactic acid change from baseline, Mean (SD) ([8]; Study Day 2, Placebo BID + metformin): 0.16 (0.266) mmol/L
- Fasting plasma lactic acid change from baseline, Mean (SD) ([8]; Study Day 6, Placebo BID + metformin): 0.08 (0.288) mmol/L
- Fasting plasma lactic acid change from baseline, Mean (SD) ([8]; Study Day 13, Placebo BID + metformin): 0.00 (0.304) mmol/L
- Subjects with lactic acid greater than the upper limits of normal (ULN) at any time ([8]; while receiving metformin alone, not sustained, minimally above ULN): four
Compound: CN(C)C(=N)N=C(N)N [Metformin, metformin, reference compound]
- Weighted mean plasma glucose following OGTT, Mean (SD) ([3]; Day 1 (baseline)): 12.65 (3.306) mmol/L
- Weighted mean plasma insulin following OGTT, Mean (SD) ([3]; Day 13): 162.97(97.374) pmol/L
- Weighted mean plasma glucose, change from baseline, Mean (SD) [3]: −0.10 (1.572) mmol/L
- Weighted mean plasma insulin, change from baseline, Mean (SD) [3]: −13.88(42.349) pmol/L
- Weighted mean plasma insulin following OGTT, Mean (SD) [4]: 176.85(104.735) pmol/L
- Effect of metformin on the pharmacokinetics of RE or its metabolites [5]: no effect
- Change from baseline in body weight, Mean (SD) ([6]; Day 2): −0.70 (0.679) kg
- Change from baseline in body weight, Mean (SD) ([6]; Day 14): −1.02 (0.845) kg
- Any AE ([7]; Placebo BID + metformin >=2000 mg/day, 13 days, N = 17): 3 (18%) N(%)
- Diarrhoea [7, 16]: 1 (6%) N(%)
- Dizziness [7, 16]: 0 N(%)
- Dyslipidemia [7, 16]: 0 N(%)
- Supraventricular tachycardia [7, 16]: 0 N(%)
- Thirst [7, 16]: 1 (6%) N(%)
- Vomiting [7, 16]: 0 N(%)
- Subjects with hypoglycemic laboratory events ([7]; placebo + metformin group, mild, resolved without intervention): one

- AUC(0-tau) accumulation ratio Day 13 versus Day 1, point estimate (90% CI) ([9]; RE 500 mg + Metformin): 1.00 (0.907–1.10)
- AUC(0-tau) accumulation ratio Day 13 versus Day 1, point estimate (90% CI) ([9]; RE 500 mg + Metformin, listed as remogliflozin): 1.00 (0.91, 1.10)
- AUC(0-tau) accumulation ratio Day 13 versus Day 1, point estimate (90% CI) ([9]; RE 750 mg + Metformin): 0.82 (0.755–0.899)
- AUC(0-tau) accumulation ratio Day 13 versus Day 1, point estimate (90% CI) ([9]; RE 750 mg + Metformin, listed as remogliflozin): 0.82 (0.755, 0.899)
- AUC [9, 17]: 4890 ng·h/mL
- Cmax [9, 17]: 2000 ng/mL
- Tmax ([9]; oral, 500 mg, Day 1, after RE 500 mg BID + metformin, N = 16, read-out: tmax, median (range)): 0.77 h
- AUC [9, 18]: 4930 ng·h/mL
- Cmax [9, 18]: 1490 ng/mL
- Tmax ([9]; oral, 500 mg, Day 13, after RE 500 mg BID + metformin, N = 15, read-out: tmax, median (range)): 3 h
- Tmax ([9]; oral, 500 mg, RE 500 mg group, read-out: Time of peak concentrations (range)): 0.5 to 6 h
- AUC [9, 19]: 8520 ng·h/mL
- Cmax [9, 19]: 4010 ng/mL
- Tmax ([9]; oral, 750 mg, Day 1, after RE 750 mg BID + metformin, N = 17, read-out: tmax, median (range)): 0.75 h
- AUC [9, 20]: 7000 ng·h/mL
- Cmax [9, 20]: 2510 ng/mL
- Tmax ([9]; oral, 750 mg, Day 13, after RE 750 mg BID + metformin, N = 16, read-out: tmax, median (range)): 1.3 h
- Tmax ([9]; po, after concomitant oral administration of RE with metformin (discussion), read-out: Time of peak concentration (range)): 0.5 to 4 h
Compound: Cc1c(Cc2ccc(OC(C)C)cc2)c(O[C@@H]2O[C@H](CO)[C@@H](O)[C@H](O)[C@H]2O)nn1C(C)C [Remogliflozin, remogliflozin]
